Experimental data: article PMC12518634, “The noncanonical function of liver-type phosphofructokinase potentiates the efficacy of HDAC inhibitors in cancer” (Signal Transduction and Targeted Therapy, 2025)
pEC50: −log10 of the molar value. Like-named read-outs stand apart in the source and are kept apart here.

Assays:
[1] = test system: 1405R3; test: High-throughput drug screen, CellTiter-Glo viability, 72 h; assay type: cell-based, human; design: AUC: scale not given here; conditions: 1405R3 DSRT analysis; for AUC: area under the dose-response curve; for MIN: lower asymptote of fitted dose-response curve; for SLOPE: slope of fitted dose-response curve; for pEC50: fitted dose-response curve, Min.Conc.tested 1, Max.Conc.tested 10000, 72 h, read-out: EC50
Method: (§1) The cells were seeded and incubated with a gradient of concentrations of drugs for 72 h, after which the cell viability was assessed (Supplementary Fig. 1a). The drug library primarily comprises epigenetic drugs, including HDAC inhibitors, DNA methyltransferase inhibitors, and histone demethylase inhibitors, as well as conventional chemotherapies and kinase inhibitors (Supplementary Fig. 1b and Supplementary Table 1). […] To identify novel therapeutics against CCA, we conducted a high-throughput screen employing PerkinElmer’s integrated robotic Explorer G3 workstations. […] Following dilution to five specified concentrations, drugs were dispensed into 96-well plates in the sequence detailed in Supplementary Fig. 1a. The CCA cell lines were subsequently plated in 384-well plates at a density of 3000 cells per well in a 20 μL total volume. After a 24-h incubation, the compounds were added to the wells and incubated for 72 h. We then quantified cell viability via the CellTiter-Glo luminescent assay according to the manufacturer’s protocol. Signal detection was carried out on a Synergy2 plate reader operated by Gen5 software (BioTek). For data processing, the raw luminescence data were processed through the Breeze pipeline for curve fitting, yielding quality control metrics (e.g., Z-factors) and drug response parameters (AUC and DSS), as adapted from previous work.[54] Drug responses were evaluated on the basis of the drug sensitivity score (DSS), and a cutoff of ≥10 was used to define efficacy. The complete drug library and screening dataset are available in Supplementary Tables 1-3.
(§2) Supplementary Fig. 1. A high-throughput drug screen to identify drugs targeting CCA. a Schematic representation of the drug screening protocol. […] Each drug was tested at five different concentrations (10, 1, 0.1, 0.01, and 0.001 μM), and each treatment was replicated twice. b Classification of drugs used for screening.

[2] = test system: 783C-6; test: as above; assay type: cell-based, human; design: AUC: scale not given here; conditions: for AUC: area under the dose-response curve; for pEC50: 72 h, read-out: EC50
Method: as §1, §2

[3] = 783C-6 cells, DSS of DSRT analysis
[4] = 783C-6 cells, minimum of dose-response curve
[5] = 783C-6 cells, slope of fitted dose-response curve
[6] = 783C-6 DSRT analysis, DSS calculated from the dose-response curve
[7] = 783C-6 DSRT analysis, MIN of the fitted dose-response curve
[8] = 783C-6 cells, DSRT analysis, CellTiter-Glo viability, concentrations tested 1 to 10000 (unit inferred), GI50
[9] = 783C-6 DSRT analysis, slope of the fitted dose-response curve

Molecule	AUC [1]	DSS ([1]; drug sensitivity score)	MIN [1]	SLOPE [1]	DSS [2, 3]	AUC ([2]; 783C-6 cells)	MIN [2, 4]	SLOPE [2, 5]	DSS ([1]; DSS)	pEC50 ([1]; Homo sapiens, CellTiter-Glo)	DSS [2, 6]	MIN [2, 7]	AUC ([2]; 783C-6 DSRT analysis)	pEC50 ([2]; Homo sapiens)	pEC50 ([1]; CellTiter-Glo viability, GI50)	pEC50 [2, 8]	pEC50 ([1]; Homo sapiens, CellTiter-Glo viability, GI50)	SLOPE [2, 9]
O=C(O)C(Cc1c[nH]c2ccccc12)N1C(=O)c2ccccc2C1=O (stereo not shown) [RG108]	0.1	0	99.8	-1.1	0	9.4	94	-0.1										
O=C(/C=C/c1ccc(CN(CCO)CCc2c[nH]c3ccccc23)cc1)NO [Dacinostat]	132.5		1.4						15.8	6.34	11.6	2.5	99	6.02				
CNC(=O)c1ccccc1Sc1ccc2c(/C=C/c3ccccn3)n[nH]c2c1 [Axitinib]	6.8		91.1						0		0	90.6	2.8					
C/C(=N\NC(=O)c1cccc(S(=O)(=O)N2CCOCC2)c1)c1cc(Cl)ccc1O [SP2509]	31.9	3.1	61	-1.6	4.9	43.2	35	-2.5							5.80	5.66		
Nc1ncn([C@H]2C[C@H](O)[C@@H](CO)O2)c(=O)n1 [Decitabine]	0.1		100						0		0.5	88.5	19.6					
NKL 22	6.3	0.2	83.7	-2.5	0	3.5	92.5	-2.5										
Cn1c(CCCCCCC(=O)NO)nc2cc(N(CCCl)CCCl)ccc21 [Tinostamustine]	56	6.3	10		7.1	62.6	3.7							5.65			5.62	
O=C(O)C(=O)O.[NH-][C@@H]1CCCC[C@H]1[NH-].[Pt+2] [Oxaliplatin]	20.5	1.7	78.3	-2.2	3.8	41.2	65.7	-1.1								6.18		
COc1cc2c(Oc3ccc(NC(=O)C4(C(=O)Nc5ccc(F)cc5)CC4)cc3F)ccnc2cc1OCCCN1CCOCC1 [Foretinib]	27.8		51.5						2.9	5.57	4.1	32.7	37.2	5.55				
Nc1ccn([C@@H]2O[C@H](CO)[C@@H](O)C2(F)F)c(=O)n1 [Gemcitabine]	151.9		40						17.6	7.58	7.6	63.5	82.5	7.40				
CC(=O)Nc1ccc(C(=O)Nc2ccccc2N)cc1 [Tacedinaline]	9.7	0.6	76.8		0.3	7.5	82.2											
O=C(NO)c1cccc(C(=O)NCCc2ccccc2)c1 [BRD73954]	13.2		91.5	-0.1					0		0	90.9	14					-0.1
COC(=O)c1ccc2c(c1)NC(=O)/C2=C(\Nc1ccc(N(C)C(=O)CN2CCN(C)CC2)cc1)c1ccccc1 [Nintedanib]	13.7	0.8	84		1.6	17.9	72.2							5.64				
NC(=O)C1CCCc2c1[nH]c1ccc(Cl)cc21 (stereo not shown) [Selisistat]	1	0	97.8	-0.6	0	11.9	93.6	-0.1										
CCN(c1cc(-c2ccc(CN3CCOCC3)cc2)cc(C(=O)NCc2c(C)cc(C)[nH]c2=O)c1C)C1CCOCC1 [Tazemetostat]	12.2	0	92.1		0	14.4	90.7											
CCN1CCN(c2ccc(Nc3cc(N(C)C(=O)Nc4c(Cl)c(OC)cc(OC)c4Cl)ncn3)cc2)CC1 [BGJ398]	50.1		7.2						5.5	5.53	8	7.1	70	5.75				
Cn1c(/C=C/C(=O)NO)ccc1/C=C/C(=O)c1cccc(F)c1 [MC1568]	2.6		94.6	-0.6					0		0	98.4	0.2					-2.5
CCOC(=O)NCCCC(=O)NCCc1ccccc1 [Santacruzamate A]	1	0	92	-2.5	0	2.2	94.7	-0.7										
Cc1cn(CCN2CCN(c3ccccc3-c3cc(C#N)cc(C(=O)NCCCN4CCCC4)c3)CC2)c2ccccc12 [LLY-507]	49.7		1.8						5.5	5.50	3.9	23.1	36.6	5.46				
Nc1ccccc1NC(=O)CCCCCCC(=O)Nc1ccccc1 [BML-210]	5.7		96.1	-0.1					0		0	97	3.9					-2.5
